Test results from patent publication US3997506A (priority 1974, dated 1976).
Like-named read-outs stand apart in the source and are kept apart here.

What was measured:
[1] = test system: phagocytosis by peritoneal macrophages of mice; type: cell-based; conditions: for % phagocytosis with respect to controls (= 100%): 80 min
Description: The macrophages the proliferation of which in the animal has been previously stimulated in vivo by an intraperitoneal injection of proteose-peptone (Difco) are collected or gathered in a sterile manner by washing the peritoneal cavity. They are then suspended in a culture medium consisting of a basal Eagle medium (B-D Merieux) admixed with 20 % of serum of foetal calf (Flow Laboratories) and with 100 U/ml of penicillin and of 50 μg/ml of streptomicin. They are distributed at the rate of 5×10^6 cells per dish into Petri Falcon dishes of 35 mm in diameter wherein they will form a monocellular layer. They are cultivated at 37° C in a water-saturated atmosphere of air and of 5 % carbon dioxide CO2.
For the measurement of phagocytosis 48 hours cultures (experiments I, II, IV) or 72 hours cultures (experiments II, V) have been used. […] The volume of methanol added to each culture was equal to 10 μl except for experiment I (25 μl).

[2] = test system: Sprague Dawley SIV 50 rat; type: in vivo, male and female Sprague Dawley SIV 50 rat; conditions: for Death rate: 10 days
Description: The high toxicity of the new derivative of colchicine (N-desacetyl-N-adamantoyl-thiocolchicine) has been investigated through the oral way with the male and female Sprague Dawley SIV 50 rat having an average weight of 100 g.
Two experiments have been carried out. In the first one, only the high toxicity of the derivative has been studied; in the second one, the high toxicity of the derivative has been compared with that of colchicine.
The derivative and colchicine have been administered in suspension in propylene glycol through an oesophageal tube at the rate of 2 ml per rat for the first experiment and of 1 ml for the second one.
The animals have been observed for 10 days.

[3] = General toxicity statement (LD50 and toxicity relative to thiocolchicine and colchicine); conditions: in vivo; of the weight of the body of animals
animals = test: as above; conditions: in vivo
viruses = test: Antiviral activity (statement); conditions: general statement
phagocytosis = conditions: literature, cited from earlier work
mouse = conditions: intraperitoneal, literature; cited from earlier work
man = conditions: may sometimes be of 6 mg only, literature; cited from earlier work
rat = conditions: intravenous, literature; cited from earlier work
cat = conditions: intravenous, literature; cited from earlier work

Compound	inhibition of phagocytosis ([1]; 0.004 μg)	% phagocytosis with respect to controls (= 100%) ([1]; 0.004 μg, Experimentation III)	% phagocytosis with respect to controls (= 100%) ([1]; 0.004 μg, Experimentation IV)	% phagocytosis with respect to controls (= 100%) ([1]; 0.04 μg, Experimentation III)	% phagocytosis with respect to controls (= 100%) ([1]; 0.04 μg, Experimentation IV)	% phagocytosis with respect to controls (= 100%) ([1]; 0.04 μg, Experimentation V)	% phagocytosis with respect to controls (= 100%) ([1]; 0.4 μg, Experimentation III)	% phagocytosis with respect to controls (= 100%) ([1]; 0.4 μg, Experimentation IV)	% phagocytosis with respect to controls (= 100%) ([1]; 0.4 μg, Experimentation V)	inhibition of phagocytosis ([1]; 4 μg)	% phagocytosis with respect to controls (= 100%) ([1]; 4 μg, Experimentation II)	% phagocytosis with respect to controls (= 100%) ([1]; 4 μg, Experimentation III)	% phagocytosis with respect to controls (= 100%) ([1]; 4 μg, Experimentation IV)	% phagocytosis with respect to controls (= 100%) ([1]; 4 μg, Experimentation V)	% phagocytosis with respect to controls (= 100%) ([1]; 5 μg, Experimentation II)	% phagocytosis with respect to controls (= 100%) ([1]; 10 μg, Experimentation II)	% phagocytosis with respect to controls (= 100%) ([1]; 12.5 μg, Experimentation I)	% phagocytosis with respect to controls (= 100%) ([1]; 20 μg, Experimentation II)	% phagocytosis with respect to controls (= 100%) ([1]; 30 μg, Experimentation II)	% phagocytosis with respect to controls (= 100%) ([1]; 40 μg, Experimentation II)	also measured
COc1cc2c(c(OC)c1OC)-c1ccc(SC)c(=O)cc1C(NC(=O)C13CC4CC(CC(C4)C1)C3)CC2 (single isomer, unassigned) [Derivative, N-desacetyl-N-adamantoyl-thiocolchicine]	10%	93.8%	85.8%	84.5%	85.9%	89.9%	72.8%	77.6%	76.2%	65%	22.5%	33.1%	42.5%	39.3%	25.9%	25.5%	46.2%	31.3%	31.1%	31.0%	% phagocytosis with respect to controls (= 100%) ([1]; 40 μg, Experimentation III): 43.7%; % phagocytosis with respect to controls (= 100%) ([1]; 40 μg, Experimentation IV): 48.4%; inhibition of phagocytosis of the red blood-corpuscles by the macrophages (in words) ([1]; compared with colchicine): will inhibit phagocytosis of the red blood-corpuscles by the macrophages nearly as colchicine would do; deaths (in words) ([2]; 3 g/kg): no death has been detected; Death rate ([2]; first experiment, 2.000 mg/kg oral): 0/10; Death rate ([2]; first experiment, 3.000 mg/kg oral): 0/10; Death rate ([2]; second experiment, 100 mg/kg oral): 0/6; Death rate ([2]; second experiment, 500 mg/kg oral): 0/6; Death rate ([2]; second experiment, 1,000 mg/kg oral): 0/6; Death rate ([2]; second experiment, 2,000 mg/kg oral): 0/6; Death rate ([2]; second experiment, 3,000 mg/kg oral): 0/6; LD50 [3]: ~3000 mg/kg; high toxicity relative to colchicine (animals): about 3,000 times less than that of colchicine; toxicity relative to thiocolchicine (animals): 30 times less toxic than thiocolchicine; activity against viruses (in words) (viruses): active against many viruses
COc1cc2c(c(OC)c1OC)-c1ccc(OC)c(=O)cc1[C@@H](NC(C)=O)CC2 [Colchicine, colchicine, reference compound]	15%	87.6%	81.6%	65%	78.9%	79.5%	44.7%	54.3%	54.4%	65%	36.9%	34.5%	32.2%	38.2%	30.3%	33.7%	36.5%	33.4%	36.2%	32.0%	inhibition of phagocytosis ([1]; 40 μg): 67%; % phagocytosis with respect to controls (= 100%) ([1]; 40 μg, Experimentation III): 33.2%; % phagocytosis with respect to controls (= 100%) ([1]; 40 μg, Experimentation IV): 33.8%; rats dead after 24 hours ([2]; 100 mg/kg oral): 1 rat; rats dead after 48 hours ([2]; 100 mg/kg oral): 5 rats; rats dead after 24 hours ([2]; 500 mg/kg oral): 5 rats; rats dead after 48 hours ([2]; 500 mg/kg oral): 1 rat; % phagocytosis (phagocytosis; 0.004 μg of colchicine): 68.6 ± 3.7%; % phagocytosis (phagocytosis; 0.04 μg of colchicine): 54.2 ± 5.4%; % phagocytosis (phagocytosis; 0.4 μg of colchicine): 39.8 ± 1.2%; LD50 (mouse): 1 mg/kg; lethal dose (man): 6 mg; LD50 (rat): 1.7 mg/kg; LD50 (cat): 0.25 mg/kg
